Test results reported in US20230338574A1, “ANTIBODY-NANOPARTICLE COMPLEXES AND METHODS FOR MAKING AND USING THE SAME” (priority 2020, published 2023).

Columns and labels:
[1] = tested on: MDA-MB-231 tumor xenograft; assay: In vivo efficacy in MDA-MB-231 tumor xenograft; set-up: species or system female athymic nude mice; settings: Kaplan Meier
Procedure: Female athymic nude mice, 6 weeks of age, were purchased from Envigo Corporation.
Human breast cancer cell lines MDA-MB-231 were purchased from ATCC and were cultured and expanded in DMEM medium supplemented with 10% FBS, 100 units/ml of penicillin and 100 μg/ml of streptomycin at 37° C. in a 5% CO2 humidified environment for a period of 2-3 weeks before harvesting for implantation. Cell viability determined by Trypan blue dye exclusion assay was >90% before implantation. 4 million MDA-MB-231 cells in 100 μl of PBS were inoculated to the right upper flank of each mouse by s.c. injection.
Tumor volume measurement was started at day 25 after tumor cell inoculation and performed twice weekly. The longest longitudinal diameter as length and the widest transverse diameter as width were measured by using a digital caliper. Tumor volume (TV) was then calculated by the formula: TV=[length×(width)^2]/2 and were analyzed in Excel.
The treatment was started when average tumor size reached ˜400 mm^3.
Mice were euthanized when tumor size reached 2000 mm^3.
After tumor-bearing mice were randomized, 0.9% saline, anti-PDL1, Irinotecan 15, albumin bound non-toxic paclitaxel (NTP), free SN-38 at 7.5 and 15 mg/kg (SN38 7.5 and 15), albumin bound SN-38 at 7.5 and 15 mg/kg (Nab 7.5 and 15), anti-PDL1 plus SN38 Nab delivered at the same time in separate injections (PDL1+Nab15), or anti-PDL1 coated albumin bound SN-38 at 7.5 and 15 mg/kg (NIC 7.5 and NIC 15) were administered. Albumin bound SN-38 (Nab) and anti-PDL1 coated SN-38 Nab (NIC) were made as described above. Drugs were diluted in 0.9% saline and administered to the athymic nude mice in 100 μl by IV injections in the tail vein. SN-38 in all forms was given at 7.5 and 15 mg/kg in a single dose.
Raw data of tumor measurements (FIG. 7A-FIG. 7K) were analyzed in Excel. Tumor growth curves, day 7 tumor response and Kaplan-Meier survival curves were plotted using GraphPad Prism 8.0 software. Data from day 7 tumor response were compared using student's t-test. P values of less than 0.05 were considered significant (FIG. 8).
In MDA-MB-231 tumor xenograft model tumor responses were determined at day 7 using the equation: {([…])/tumor size day 0}*100. Differences in tumor response were determined by student's t-test in GraphPad Prism software 8.0. Percent change above the zero line indicates tumor growth, and below the zero line indicates tumor shrinking. […]
Kaplan Meier curves for the MDA-MB-231 xenotransplant model were generated in GraphPad Prism software 8.0 and median survival was determined to be 28, 34, 30, 24.5, 30, and 42.5 for the saline, anti-PDL1, Irinotecan 15, NTP, free SN38 7.5, and free SN38 15, respectively. […]

[2] = molecular target: T1, SN38:NTP Nab (albumin nanoparticles made with non-toxic paclitaxel derivative and SN38) (human, UniProt P02768 25-609); assay: zeta potential (Zetasizer), SN38:NTP:STI3031 NIC against SN38:NTP Nab
T1 construct: also called SN38 Nab

[3] = molecular target: nab-paclitaxel (Taxol) nanoparticles with SN38 (human) (UniProt P02768); assay: zeta potential (Zetasizer), nanoparticles with 2, 4, 6 or 8 mg/ml antibody

## CCc1c2c(nc3ccc(OC(=O)N4CCC(N5CCCCC5)CC4)cc13)-c1cc3c(c(=O)n1C2)COC(=O)[C@]3(O)CC [Irinotecan, irinotecan]
[1]; 15 mg/kg, IV
  median survival: 30

## CCc1c2c(nc3ccc(O)cc13)-c1cc3c(c(=O)n1C2)COC(=O)[C@]3(O)CC [SN38]
[1]; 7.5 mg/kg, single IV dose
  median survival: 30
[1]; 15 mg/kg, IV
  median survival: 42.5

## anti-PDL1: anti-PDL1 H6B1L-EM antibody (STI3031), HC/LC SEQ ID NO. 1/SEQ ID NO. 2
[1]; IV injection, dose not given
  median survival: 34

B1: anti-PDL1 H6B1L-EM antibody (STI3031) (antibody, human IgG1, lambda, V domains shown)
VH: QMQLVQSGAEVKKPGSSVKVSCKASGGTFSSYAYSWVRQAPGQGLEWMGGIIPSFGTANYAQKFQGRVTITADESTSTAYMELSSLRSEDTAVYYCARGPIVATITPLDYWGQGTLVTVSS
VL: SYVLTQPPSVSVAPGKTATIACGGENIGRKTVHWYQQKPGQAPVLVIYYDSDRPSGIPERFSGSNSGNTATLTISRVEAGDEADYYCLVWDSSSDHRIFGGGTKLTVLG
notes: also called PDL1 antibody
[2]
  binding result: binds
[3]
  antibody concentration at which zeta potential reaches its maximum: 4 mg/mL
